For 16 compounds, EC50 and IC50 results are on record in US7875607B2, “7,8-bicycloakyl-chroman derivatives” (Ampere Life Sciences, Inc., priority 2004, dated 2011).

The first assay has as its system LTB4 release from MPRO cell line. Put plainly: LTB4-cell assay. It is filed as cell-based. The note with it: Mus musculus; differentiated MPRO cells, 1 μM A23187, 1 hour; read-out: EC50, inhibition of LTB4. Here is the method: This procedure was used for measuring the release of the leukotriene LTB4 from a neutrophil cell line using a competitive ELISA technique.
A mouse promyelocytic cell line (MPRO) was used in this assay. These cells are committed immature neutrophils that can be differentiated into mature neutrophils by treatment with 10 μM all-trans retinoic acid for 72 hours
Following 72 hours of differentiation, cells were stimulated with 1 μM of a calcium ionophore (A23187) in the presence or absence of test compound or vehicle for 1 hour at 37° C. After this time, supernatant was removed from the cells and the LTB4 levels were determined following manufacturer's instructions, using a Leukotriene B4 EIA kit from Cayman (Cat # 520111)
The negative controls were media samples from differentiated but unstimulated cells.
The compounds were screened at 5 concentrations in quadruplicate starting at 10 μM
As usually defined, the EC50 is the midpoint of the concentration-response curve. `CN(C)CC(=O)Oc1cc2c(c3c1C1CCC3CC1)OC(C)(C)CC2` [Dimethylamino-acetic acid 2,2-dimethyl-3,4,7,8,9,10-hexahydro-7,10-ethano-2H-benzo[h]chromen-6-yl ester]: the EC50 is at most 5000 nM.

In the next assay the target is T1, human recombinant 5-lipoxygenase (Homo sapiens, UniProt P09917).
T1 construct: purchased Cayman 60402
T1 sequence (P09917 1-674): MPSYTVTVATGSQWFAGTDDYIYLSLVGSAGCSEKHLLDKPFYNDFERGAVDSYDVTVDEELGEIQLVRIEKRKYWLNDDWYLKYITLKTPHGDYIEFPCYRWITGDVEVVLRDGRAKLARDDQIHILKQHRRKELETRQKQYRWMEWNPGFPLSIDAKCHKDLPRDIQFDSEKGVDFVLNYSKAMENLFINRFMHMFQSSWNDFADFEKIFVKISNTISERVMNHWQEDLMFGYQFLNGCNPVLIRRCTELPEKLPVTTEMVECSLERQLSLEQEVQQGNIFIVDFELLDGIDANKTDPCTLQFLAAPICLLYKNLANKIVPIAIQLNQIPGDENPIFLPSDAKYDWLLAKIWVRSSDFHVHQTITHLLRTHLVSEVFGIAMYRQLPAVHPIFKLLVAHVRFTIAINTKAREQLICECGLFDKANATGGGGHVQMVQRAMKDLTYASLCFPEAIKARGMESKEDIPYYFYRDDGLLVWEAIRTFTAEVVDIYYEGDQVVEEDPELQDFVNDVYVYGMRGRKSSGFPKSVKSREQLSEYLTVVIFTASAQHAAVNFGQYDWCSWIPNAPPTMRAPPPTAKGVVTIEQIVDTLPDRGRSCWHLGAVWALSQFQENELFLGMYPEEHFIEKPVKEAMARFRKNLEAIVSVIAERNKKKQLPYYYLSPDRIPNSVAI
Put plainly: 5-Lipoxygenase enzyme assay. Type of assay: biochemical. The note with it: 70 μM arachidonic acid, pH 7.4. Here is the method: This procedure was used for measuring the enzymatic activity of human recombinant 5-lipoxygenase using a […] method based on the ferric oxidation of xylenol orange.
Human recombinant 5-lipoxygenase (Cayman Cat # 60402) was used in this assay. The test compound and/or vehicle was added to 0.5U 5-lipoxygenase in 50 mM Tris-HCl buffer, pH 7.4. The reaction was initiated by addition of 70 μM arachidonic acid in Tris-HCl buffer, pH 7.4, and terminated after a 10 minute incubation at room temperature by addition of FOX reagent (25 mM sulphuric acid, 100 μM xylenol orange, 100 μM iron (II) sulphate, methanol:water 9:1). The yellow color of acidified xylenol orange was converted to a blue color by the lipid hydroperoxide-mediated oxidation of Fe^2+ ions and the interaction of the resulting Fe^3+ ions with the dye. The complex was allowed to form during a 1 hour incubation at room temperature with shaking. Absorbance of the Fe^3+ complex was then measured at […] using a spectrophotometer.
Negative controls contained enzyme during the incubation step but substrate was not added until after the FOX reagent.
Compounds were screened at 5 concentrations in triplicate starting at 10 μM
As usually defined, the IC50 is the concentration that gives 50% inhibition. `CC1(CCC(=O)OCc2ccccc2)CCc2cc(O)c3c(c2O1)C1CCC3CC1` (stereo not drawn) [3-(6-Hydroxy-2-methyl-3,4,7,8,9,10-hexahydro-7,10-ethano-2H-benzo[h]chromen-2-yl)-propionic acid benzyl ester]: the IC50 is at most 5000 nM. On to `COC(=O)CCC1(C)CCc2cc(O)c3c(c2O1)C1CCC3CC1` (stereo not drawn) [3-(6-Hydroxy-2-methyl-3,4,7,8,9,10-hexahydro-7,10-ethano-2H-benzo[h]chromen-2-yl)-propionic acid methyl ester], for which the IC50 was at most 5000 nM. Still for that read-out and setting: with `COC(=O)CCC1(C)CCc2cc(O)c3c(c2O1)C1CCCC3CC1` (stereo not drawn) [3-(6-Hydroxy-2-methyl-3,4,7,8,9,10-hexahydro-7,10-propano-2H-benzo[h]chromen-2-yl)-propionic Acid Methyl Ester] the figure was at most 5000 nM.

As for `COC12CCC(CC1)c1c(O)cc3c(c12)OC(C)(C)CC3` [10-Methoxy-2,2-dimethyl-3,4,7,8,9,10-hexahydro-7,10-ethano-2H-benzo[h]chromen-6-ol], the IC50 is at most 5000 nM.

A further assay relates to LTB4 production in heparinized whole blood. Put plainly: Inhibition of LTB4 production in blood. It is filed as cell-based, rat or mouse. The note with it: 20 μM A23187, read-out: EC50, protection against LTB4. Here is the method:
The blood was collected in heparinized tubes or syringes to prevent clotting. Heparin was at 20 USP U/ml. About 3-5 ml of blood was collected per rat and about 0.5-0.75 ml per mouse. This assay required 200 μl/data point, therefore a 96 well plate requires 20 ml.
The Calcium ionophore A23187 was prepared as a 10 mM stock solution in DMSO and the test agent is prepared in DMSO so that <1 μl DMSO will be added to the well
200 μl blood per well were added in a round bottom 96 well clear plastic 96 well plate followed by the test agent. After 10 minutes incubation at 37° C., 5 μl of Calcium ionophore A23187 for a final concentration of 20 μM were added and mixed, and further incubated for 30 min. After 1000×g centrifugation to pellet blood cells, 20 μl plasma was carefully removed.
20 μl plasma were added to 80 μl methanol to precipitate protein and mixed. This was further incubated 10 min. at room temperature and centrifuged at 1000×g to pellet protein.
Following manufacturer's instructions, the commercially available EIA kit was used to subsequently measure the LTB4 production in the samples. The LTB4 levels produced in the vehicle control sample were then compared to those in which the test compound had been added. From this a percent inhibition of LTB4 production by each concentration of test compound was calculated and the IC50 for inhibition of LTB4 production for each test compound was determined.
As to `CCCC1=NN(C)C(=O)/C1=C\c1c(O)c2c(c3c1CCC(C)(C)O3)C1CCC2C1` (stereo not drawn) [4-(6-Hydroxy-2,2-dimethyl-3,4,7,8,9,10-hexahydro-7,10-methano-2H-benzo[h]chromen-5-ylmethylene)-2-methyl-5-propyl-2,4-dihydro-pyrazol-3-one], the EC50 is at most 10000 nM. On the same count and under the same terms, with `COP(=O)(CCCC1(C)CCc2cc(O)c3c(c2O1)C1CCC3C1)OC` (stereo not drawn) [[3-(6-Hydroxy-2-methyl-3,4,7,8,9,10-hexahydro-7,10-methano-2H-benzo[h]chromen-2-yl)-propyl]-phosphonic Acid Dimethyl Ester] the figure was at most 10000 nM.

The test system of another assay is dopaminergic neuronal cell line. Put plainly: High glutamate-induced oxidative stress assay (HGOS). Type of assay: cell-based. The note with it: Mus musculus; 30 mM glutamate, 16 hrs; read-out: EC50, protection against HGOS cell injury and cell death. The text has this:
Protection against redox stress can be further evaluated in cell culture using high glutamate induced oxidative stress (HGOS) in mouse dopaminergic cell lines. The cytotoxic effect of glutamate is not due to excitotoxicity, as this cell line is devoid of inotropic glutamate receptors. Rather, the glutamate-induced toxicity of dopaminergic cells is associated with an inhibition of cystine transport which subsequently leads to depletion of intracellular glutathione (GSH) levels (Murphy T. H., et al. Neuron 2, 1547-1558, 1989), activation of neuronal 12-lipoxygenase (Li, Y. et al., Neuron 19, 453-463, 1997), increased ROS production (Tan S. et al., J. Cell Biol. 141, 1423-1432, 1998) and elevated intracellular Ca^2+ (Li, Y. et al., see supra). Some molecules were measured for their ability to protect cells against glutamate-induced stress and the assay is detailed in Examples.
This procedure was used to induce high glutamate-induced oxidative stress (HGOS) in a dopaminergic neuronal cell line. Using this assay the potency and efficacy of test articles against HGOS neuronal cell injury and cell death was established in a high throughput manner.
The cells were seeded into 96-well plates at a density of 2000 per well and left to grow for 72 hours in a 33° C. incubator with 5% CO2 in air atmosphere. The passage number of the cells for each assay experiment were no later than p11 in order to minimize experimental variation.
All compounds were dissolved in DMEM-No Glu containing 1 mM glucose, 30 mM glutamate and 1×Pen/Strep. DMEM-No Glu with 1 mM glucose and 1×P/S was used as the negative control, DMEM-No Glucose with 1 mM glucose, […] was used as a positive control and 100 μM Glutathione was added to the positive control as a standard. All of the procedures for this involving the making and dilution of compounds were performed using aseptic conditions and with minimal light.
The plates were removed from the incubator and examined under the microscope for morphological appearance and density. Using an aseptic technique and an 8-channel aspirator the media was carefully removed from the cells and replaced with 200 μl of 1×HBSS. This was done as quickly as possible to prevent the cells drying out. The plates were then placed in the humidified 37° C. incubators of the Biomek 2000 Side Loader. Four plates were washed at a time so as to minimize the time that the cells were sitting in 1×HBSS prior to addition of the compound test solution.
The Beckman Biomek workstations were used to load the compounds and controls from the mother plates onto the cell plates that were prewashed with HBSS under sterile conditions. The plates were incubated in the upper HTS incubator at 37° C. in 5% CO2 for exactly 16 hrs. The following day, using the Beckman Biomek workstations, the plates were removed from the incubator. Using Cell Tracker Addition, the compounds were removed from the plates, washed once with […] of pre-warmed 1×HBSS and then 100 μL of 5 μM Cell Tracker Green was added to each well. The plates were incubated at 37° C. for 30 min to allow the dye to enter the cell and be cleaved by the esterases. After washing the cells twice with prewarmed 1×HBSS, the plates were read with the 485 excitation; 538 emission filter pair on a Fluoroskan.
Regarding `CC(C)=CCc1c(O)c2c(c3c1CCC(C)(C)O3)C1CCC2CC1` [2,2-Dimethyl-5-(3-methyl-but-2-enyl)-3,4,7,8,9,10-hexahydro-7,10-ethano-2H-benzo[h]chromen-6-ol], the EC50 is at most 1000 nM. Same read-out and setting: for `CC(C)=CCc1c(O)c2c(c3c1C=CC(C)(C)O3)C1CCC2C1` (stereo not drawn) [2,2-Dimethyl-5-(3-methyl-but-2-enyl)-7,8,9,10-tetrahydro-7,10-methano-2H-benzo[h]chromen-6-ol] the value was at most 1000 nM. Same read-out and setting: with `CC1(CCCSc2nc3ccccc3s2)CCc2cc(O)c3c(c2O1)C1CCC3CC1` (stereo not drawn) [2-[3-(Benzothiazol-2-ylsulfanyl)-propyl]-2-methyl-3,4,7,8,9,10-hexahydro-7,10-ethano-2H-benzo[h]chromen-6-ol] the figure was at most 1000 nM; with `COC(=O)CCC1(C)CCc2cc(O)c3c(c2O1)C1CCCC3CC1` (stereo not drawn) [3-(6-Hydroxy-2-methyl-3,4,7,8,9,10-hexahydro-7,10-propano-2H-benzo[h]chromen-2-yl)-propionic Acid Methyl Ester], at most 1000 nM. Same read-out and setting: with `CCCC1=NN(C)C(=O)/C1=C\c1c(O)c2c(c3c1CCC(C)(C)O3)C1CCC2C1` (stereo not drawn) [4-(6-Hydroxy-2,2-dimethyl-3,4,7,8,9,10-hexahydro-7,10-methano-2H-benzo[h]chromen-5-ylmethylene)-2-methyl-5-propyl-2,4-dihydro-pyrazol-3-one] the figure was at most 1000 nM; with `CC1=NN(c2ccc(C(=O)O)cc2)C(=O)C1=Cc1c(O)c2c(c3c1CCC(C)(C)O3)C1CCC2C1` (stereo not drawn) [4-[4-(6-Hydroxy-2,2-dimethyl-3,4,7,8,9,10-hexahydro-7,10-methano-2H-benzo[h]chromen-5-ylmethylene)-3-methyl-5-oxo-4,5-dihydro-pyrazol-1-yl]-benzoic acid], at most 1000 nM; with `CC1(C)CCc2c(CC=C3CCCCC3)c(O)c3c(c2O1)C1CCC3CC1` [5-(2-Cyclohexylidene-ethyl)-2,2-dimethyl-3,4,7,8,9,10-hexahydro-7,10-ethano-2H-benzo[h]chromen-6-ol], at most 1000 nM.

With `CC1(C)CCc2c(C=C3C(=O)Oc4ccc(O)cc43)c(O)c3c(c2O1)C1CCC3C1` (stereo not drawn) [5-Hydroxy-3-(6-hydroxy-2,2-dimethyl-3,4,7,8,9,10-hexahydro-7,10-methano-2H-benzo[h]chromen-5-ylmethylene)-3H-benzofuran-2-one], the EC50 is at most 1000 nM. Same read-out and setting: with `CC1(C)CCc2c(CO)c(O)c3c(c2O1)C1CCC3C1` (stereo not drawn) [5-Hydroxymethyl-2,2-dimethyl-3,4,7,8,9,10-hexahydro-7,10-methano-2H-benzo[h]chromen-6-ol] the figure was at most 1000 nM. Same read-out and setting: for `CC(=O)Oc1c(CC=C(C)C)c2c(c3c1C1CCC3C1)OC(C)(C)C=C2` (stereo not drawn) [Acetic acid 2,2-dimethyl-5-(3-methyl-but-2-enyl)-7,8,9,10-tetrahydro-7,10-methano-2H-benzo[h]chromen-6-yl ester] the value was at most 1000 nM.

With `CC(=O)Oc1c(CCC(C)C)c2c(c3c1C1CCC3C1)OC(C)(C)CC2` (stereo not drawn) [Acetic acid 2,2-dimethyl-5-(3-methyl-butyl)-3,4,7,8,9,10-hexahydro-7,10-methano-2H-benzo[h]chromen-6-yl ester], the EC50 was at most 1000 nM.
